Data on 2 compounds can be found in ChEMBL document CHEMBL3621091, “Optimisation of a triazolopyridine based histone demethylase inhibitor yields a potent and selective KDM2A (FBXL11) inhibitor” (Medchemcomm, 2014).

What all share (assay type): physicochemical
Holding throughout (settings): read-out: Peff

A short description of series [1]: Membrane permeability of the compound at pH 7.4 by PAMPA. In general terms: The PAMPA barrier holds no transporters, so it reflects passive diffusion.
A short description of series [2]: Membrane permeability of the compound at pH 6.2 by PAMPA.
The nature of series [3]: Membrane permeability of the compound at pH 5 by PAMPA.

`COC(=O)c1ccnc(-c2cn([C@@H]3CCCN(C(=O)c4ccccc4)C3)nn2)c1`: the results for the Papp in series [1], in series [2] and in series [3] were 520 nm/s, 450 nm/s and 560 nm/s, respectively.
The corresponding values for `O=C(O)c1ccnc(-c2cn([C@@H]3CCCN(C(=O)c4ccccc4)C3)nn2)c1` are 6.9 nm/s, 4.1 nm/s and 19 nm/s.
